Experimental data as given in patent publication US20240082212A1, “USE OF MDMA FOR TREATMENT OF STRESS-RELATED DISORDERS” (priority 2022, published 2024).
pIC50, pKi: −log10 of the molar value. Entries after “also recorded” stand apart in the source; their conditions may differ.

Columns and labels:
Serotonin 5-HT2B = Serotonin 5-HT2B (Homo sapiens, UniProt P41595); experiment: Eurofins Panlabs radioligand binding panel, serotonin 5-HT2B; settings: 0.3 nM to 10 μM, duplicate
C57BL/6J mice = experiment: Head twitch response (HTR); assay type: in vivo, mouse; settings: 30 minutes after injection
How it was run: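 Male C57BL/6J mice with head-mounted magnets were given vehicle or test drug IP (0.1–10 mg/kg, salt-based dose, in saline; n=5-6/group). Head twitches were recorded by magnetometer coil for 30 minutes immediately after injection and classified by ResNet-50 features with SVM; treatments at least seven days apart.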

CD (Sprague Dawley) rats = experiment: Rat functional observation battery (FOB) neurobehavioral evaluation after cumulative SC dosing; assay type: in vivo
Protocol: The observations were assessed through a rat functional observation battery (FOB) and continuous physiological measurements on the day of cumulative dosing, which are provided in further detail below.
Methods. A total of 42 adult male CD® (Sprague Dawley) rats (Charles River Laboratories) were surgically implanted with DSI radiotelemetry devices by personnel at Charles River Laboratories Raleigh, NC, per their test site SOPs. Telemetry devices supported continuous recording of temperature, activity, blood pressure and heart rate. Telemeterized rats were shipped to the Charles River Laboratories testing facility (Mattawan, MI) and acclimated to the environment for at least 1 week prior to experimentation. Animals were pair-housed in solid bottom cages with nonaromatic bedding. On the dosing day, animals were singly housed and then returned to the paired cohort following the dosing/telemetry recording phase. Diet (Lab Diet® Certified Rodent Diet #5CR4) and tap water via an automatic water system were available ad libitum, except during designated procedures. Temperature and humidity were maintained according to the Testing Facility SOP. Animals were randomized into treatment groups using a standard, by weight, measured value randomization procedure. Body weight was determined for each rat prior to dosing.
As illustrated in the Table, a total of 36 rats were included in the study. The vehicle and 2 test article doses were administered in a volume of 1 mL/kg to each of 3 groups of n=12 telemeterized rats via subcutaneous injection four times on a given day, followed by neurobehavioral evaluations. This series was repeated 3 times on study. Each group received all 3 dose levels of the applicable test or control article in ascending order with a 1-week washout between dose levels.
Mortality/cage side clinical observations were conducted for all study animals at least twice daily beginning upon receipt through termination, except on days of receipt and termination where frequency was at least once daily. Detailed clinical observations were conducted for all study animals prior to each of the four cumulative doses in a series. Individual body weights were conducted for all study animals at transfer, prior to randomization, on the day of dosing on each of the 3 cycles of dosing. The body weights recorded at transfer and prior to randomization are not reported but are maintained in the study file. Veterinary care was available throughout the course of the study, and animals were examined by the veterinary staff as needed based on clinical signs or other changes. All animals were provided with HydroGel the night prior to their respective dosing days to potentially mitigate any animal welfare issues related to fluid loss/dehydration.
Neurobehavioral evaluations (blinded) were conducted for all study animals 1 hour following the last (4th) cumulative dose of the series. The neurobehavioral parameters evaluated included: activity measurements (arousal/alertness, posture/body carriage, stereotypy, rearing, and appearance), autonomic measurements (exophthalmus, lacrimation, erected fur, pupil response, salivation, defecation, and palpebral closure/ptosis), excitability measurements (vocalizations, startle response, ease of removal, handling reactivity, and convulsions), neuromuscular measurements (gait/mobility, grip strength/response, air righting reflex, tremor, and body tone), physiological measurements (respiration and body temperature), and sensorimotor measurements (touch response/tactile reflex and thermal response).

[1] = Rat plasma pharmacokinetics after cumulative (QID) SC injections; settings: QID SC; for AUC(0-t) / half-life: CD (Sprague Dawley); for half-life: T1/2, male rat plasma
[2] = 1 h after last of 4 hourly SC injections, R-MDMA and racemic MDMA 10, 20 mg/kg/day, S-MDMA 5, 10 mg/kg/day
[3] = 1 h after last of 4 hourly SC injections, racemic MDMA 10, 20 mg/kg/day, S-MDMA 5, 10 mg/kg/day
[4] = FOB, cumulative SC dosing, dose groups stated in the value
[5] = male rat plasma, parent analyte, total 5 mg/kg/day
[6] = male rat plasma, parent analyte, total 10 mg/kg/day
[7] = male rat plasma, parent analyte, total 20 mg/kg/day

Serotonin 5-HT2B, sequence (P41595 whole entry): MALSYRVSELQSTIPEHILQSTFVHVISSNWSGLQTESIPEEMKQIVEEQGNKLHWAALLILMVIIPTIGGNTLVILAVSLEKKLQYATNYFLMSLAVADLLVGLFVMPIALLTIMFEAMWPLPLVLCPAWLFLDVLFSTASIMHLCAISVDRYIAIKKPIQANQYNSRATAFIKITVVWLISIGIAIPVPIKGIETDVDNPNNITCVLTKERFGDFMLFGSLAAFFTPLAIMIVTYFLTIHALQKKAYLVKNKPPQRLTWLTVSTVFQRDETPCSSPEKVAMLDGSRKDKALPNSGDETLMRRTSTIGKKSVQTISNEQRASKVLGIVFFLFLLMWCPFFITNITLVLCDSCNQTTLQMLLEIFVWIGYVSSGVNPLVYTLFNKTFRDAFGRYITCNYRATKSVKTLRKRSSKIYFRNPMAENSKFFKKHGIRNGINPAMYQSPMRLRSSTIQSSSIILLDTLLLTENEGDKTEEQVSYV

CNC(C)Cc1ccc2c(c1)OCO2 (single isomer, unassigned) [S-MDMA, S(+)-MDMA]
pIC50 (Serotonin 5-HT2B; IC50, 10 half-log concentrations): 4.92 | pKi (Serotonin 5-HT2B; Ki, 10 half-log concentrations): 5.12 | head twitch response (HTR) compared to control (vehicle) (C57BL/6J mice; 3 mg/kg IP): reduction of HTR | head twitch response (HTR) compared to control (vehicle) (C57BL/6J mice; 10 mg/kg IP): reduction of HTR | arousal/alertness and rearing (CD (Sprague Dawley) rats; [2]): general increase in overall levels of arousal/alertness and rearing | ease of removal from the home cage and handling reactivity (excitability) (CD (Sprague Dawley) rats; [2]): Dose-dependent increased difficulty in removal from the home cage and increased handling reactivity | forelimb grip strength (CD (Sprague Dawley) rats; [2]): dose-dependent statistically significant decreases in forelimb grip strength | salivation and erected fur (autonomic) (CD (Sprague Dawley) rats; [2]): Dose-dependent increased salivation and erected fur | unkempt appearance (CD (Sprague Dawley) rats; [2]): increased incidence of unkempt appearance in a dose-dependent manner | stereotypies (mouth movements/weaving, circling/retropulsion, sniffing) (CD (Sprague Dawley) rats; 1 h after last of 4 hourly SC injections, highest doses: S-MDMA 10, racemic-MDMA 20 mg/kg/day, R-MDMA 10, 20 mg/kg/day): observed in animals treated with S-MDMA and racemic-MDMA only at the highest tested doses; also recorded: only one S-MDMA-treated animal was reported with stereotypical behaviors | general gait/mobility changes (CD (Sprague Dawley) rats; [3]): General gait/mobility changes were only observed | respiration (CD (Sprague Dawley) rats; [3]): Rapid respiration was noted | Rank Order Activity Measurement Effects (CD (Sprague Dawley) rats; [4]): S-MDMA (5 mg/kg/day) < R-MDMA (10 mg/kg/day) < Rac.-MDMA (10 mg/kg/day); also recorded: Rac.-MDMA (20 mg/kg/day) < S-MDMA (10 mg/kg/day) < R-MDMA (20 mg/kg/day); also recorded: S-MDMA (0 mg/kg/day) < S-MDMA (5 mg/kg/day) < S-MDMA (10 mg/kg/day); also recorded: Rac.-MDMA (20 mg/kg/day) < S-MDMA (10 mg/kg/day) < R-MDMA (10 mg/kg/day) | Rank Order Autonomic Measurement Effects (CD (Sprague Dawley) rats; [4]): R-MDMA (10 mg/kg/day) < S-MDMA (5 mg/kg/day) < Rac.-MDMA (10 mg/kg/day); also recorded: R-MDMA (20 mg/kg/day) < S-MDMA (10 mg/kg/day) < Rac-MDMA (20 mg/kg/day); also recorded: S-MDMA (0 mg/kg/day) < S-MDMA (5 mg/kg/day) < S-MDMA (10 mg/kg/day); also recorded: R-MDMA (10 mg/kg/day) < S-MDMA (10 mg/kg/day) = Rac-MDMA (20 mg/kg/day) | Rank Order Excitability Measurement Effects (CD (Sprague Dawley) rats; [4]): R-MDMA (10 mg/kg/day) < S-MDMA (5 mg/kg/day) < Rac.-MDMA (10 mg/kg/day); also recorded: R-MDMA (20 mg/kg/day) = S-MDMA (10 mg/kg/day) < Rac-MDMA (20 mg/kg/day); also recorded: S-MDMA (0 mg/kg/day) < S-MDMA (5 mg/kg/day) < S-MDMA (10 mg/kg/day); also recorded: R-MDMA (10 mg/kg/day) < S-MDMA (10 mg/kg/day) < Rac-MDMA (20 mg/kg/day) | Rank Order Neuromuscular Measurement Effects (CD (Sprague Dawley) rats; [4]): R-MDMA (10 mg/kg/day) < S-MDMA (5 mg/kg/day) < Rac.-MDMA (10 mg/kg/day); also recorded: R-MDMA (20 mg/kg/day) = S-MDMA (10 mg/kg/day) < Rac-MDMA (20 mg/kg/day); also recorded: S-MDMA (0 mg/kg/day) < S-MDMA (5 mg/kg/day) = S-MDMA (10 mg/kg/day); also recorded: R-MDMA (10 mg/kg/day) < S-MDMA (10 mg/kg/day) < Rac-MDMA (20 mg/kg/day) | Rank Order Physiological Measurement Effects (CD (Sprague Dawley) rats; [4]): R-MDMA (10 mg/kg/day) < S-MDMA (5 mg/kg/day) < Rac.-MDMA (10 mg/kg/day); also recorded: R-MDMA (20 mg/kg/day) < S-MDMA (10 mg/kg/day) = Rac-MDMA (20 mg/kg/day); also recorded: S-MDMA (0 mg/kg/day) < S-MDMA (5 mg/kg/day) < S-MDMA (10 mg/kg/day); also recorded: R-MDMA (10 mg/kg/day) < S-MDMA (10 mg/kg/day) = Rac-MDMA (20 mg/kg/day) | Rank Order Sensorimotor Measurement Effects (CD (Sprague Dawley) rats; [4]): S-MDMA (5 mg/kg/day) < Rac-MDMA (10 mg/kg/day) < R-MDMA (10 mg/kg/day); also recorded: S-MDMA (10 mg/kg/day) < Rac-MDMA (20 mg/kg/day) < R-MDMA (20 mg/kg/day); also recorded: S-MDMA (0 mg/kg/day) < S-MDMA (10 mg/kg/day) < S-MDMA (5 mg/kg/day) | thermal response times (CD (Sprague Dawley) rats; at levels at least two-fold that of vehicle-treated groups, 1 h after last of 4 hourly SC injections): Statistically significant increases in thermal response times | dose dependence of Cmax and AUC0-27 hr ([1]; from 5 to 10 mg/kg/day S-MDMA): approximately dose proportional manner | dose dependence of Cmax and AUC0-27 hr ([1]; from 5 to 20 mg/kg/day S-MDMA): greater than dose proportional manner | Cmax ([1]; male rat plasma, parent analyte (total MDMA after Rac-MDMA), total 10 mg/kg/day of the test article): 1220 ng/mL | Cmax ([1]; male rat plasma, parent analyte (total MDMA after Rac-MDMA), total 20 mg/kg/day of the test article): 2560 ng/mL | AUC0-27 hr/Dose [1, 5]: 302 *kg*ng/mL/mg | Cmax/Dose [1, 5]: 89.3 kg·ng/mL/mg | Tlast [1, 5]: 7 h | AUC0-27 hr [1, 6]: 4130 ng·h/mL | AUC0-27 hr/Dose [1, 6]: 413 *kg*ng/mL/mg | AUCTlast [1, 6]: 4030 ng·h/mL | Cmax/Dose [1, 6]: 122 kg·ng/mL/mg | T1/2 [1, 6]: 1.15 h | Tlast [1, 6]: 11 h | Tmax ([1]; male rat plasma, parent analyte, total 10 mg/kg/day, time after 1st injection): 3.5 h | AUC0-27 hr [1, 7]: 15000 ng·h/mL | AUC0-27 hr/Dose [1, 7]: 748 *kg*ng/mL/mg | AUCTlast [1, 7]: 15000 ng·h/mL | Cmax/Dose [1, 7]: 128 kg·ng/mL/mg | Tlast [1, 7]: 27 h | AUC(0-t) ([1]; male, rat, plasma, sc, 5 mg/kg/day, AUC0-27 hr, male rat plasma, parent analyte, total 5 mg/kg/day): 1510 ng·h/mL | AUC(0-t) ([1]; male, rat, plasma, sc, 5 mg/kg/day, AUCTlast, male rat plasma, parent analyte, total 5 mg/kg/day): 1490 ng·h/mL | half-life ([1]; male, rat, plasma, sc, 5 mg/kg/day, parent analyte, total 5 mg/kg/day): 0.754 h | half-life ([1]; male, rat, plasma, sc, 20 mg/kg/day, parent analyte, total 20 mg/kg/day): 3.17 h | Cmax ([1]; male, Sprague-Dawley (CD), rat, plasma, sc, 5 mg/kg/day, Cmax, male rat plasma, parent analyte, total 5 mg/kg/day of the test article): 447 ng/mL
